# Source: publication PMC8691750, “Euphorbia Factor L2 ameliorates the Progression of K/BxN Serum-Induced Arthritis by Blocking TLR7 Mediated IRAK4/IKKβ/IRF5 and NF-kB Signaling Pathways” (Frontiers in Pharmacology, 2021)
# How the values were obtained:
# [1] = system: synovial hyperplasia and articular inflammatory cells infiltration in knee joints; experiment: Histological assessment (H&E) of knee joints of STA mice; type: in vivo, C57BL/6 mice; conditions: DEX 30 mg/kg gavage
# Method: (§1) K/BxN serum was collected from K/BxN mice at 8 weeks of age, pooled, aliquoted and stored at -20 °C. K/BxN serum-transfer arthritis (STA) model was induced by intraperitoneal (i.p.) application of 150 μL of serum at day 0. Clinical score for arthritis severity was assessed using a 0–4 point scale for each paw at various time points (0–16 total score) as described previously ([Luo et al., 2011]). 8-week old male C57BL/6 mice were purchased from Dashuo Animal Center (China, Chengdu), maintained at 25°C, and exposed to 12-h light and dark cycles. Mice were fed with standard laboratory chow and water with 1 week of acclimatization. Naive mice were used as the control group. Except the control mice, all mice were i. p. injected with 150 μL of serum, then randomly divided into the following groups and treated with different compounds daily for the consecutive 8 days: 1) STA group; 2) Solvent control group, mice were gavaged with the solvent; 3) Dexamethasone (DEX) group, mice were gavaged with 30 mg/kg DEX; 4) EFL2 group 1, mice were gavaged with 40 mg/kg EFL2; 5) EFL2 group 2, mice were intraperitoneally injected with 15 mg/kg EFL2; 6) EFL2 group 3, […] were intraperitoneally injected with 40 mg/kg EFL2. […] All animal experiments were conducted in accordance with ethical regulation for animal care and use in China.
# The left knee joints were removed on day 13 post STA and fixed in 4% formaldehyde overnight at 4°C. The tissues were decalcified in EDTA and sectioned after embedding in paraffin. 5 μm sections were deparaffinized with xylene, re-hydrated with 100, 95 and 80% ethanol and then stained with hematoxylin and eosin (H&E). Histopathological changes in the knee joints were measured using a semiquantitative scoring system (0–4 scale) to assess synovial hyperplasia and articular inflammatory cells infiltration as previously described ([Yamanishi et al., 2002]).
# [2] = system: TNF-α, IL-4, IL-17A, IL-1β and IL-6 in serum; experiment: Cytokines in sera of STA mice (CBA Multiplex kit, ELISA); type: in vivo, C57BL/6 mice; conditions: STA mice; DEX 30 mg/kg gavage
# Method: as §1
# (§2) IL-4, IL-17A and TNF-α in sera from different group mice were measured using CBA Multiplex kit (BD, United States). The concentrations of IL-1β and IL-6 in serum or supernatant were detected by ELISA Kit (MULTI SCIENCES, China) according to the manufacturers’ instructions.
# [3] = system: K/BxN serum-transfer arthritis (STA) model; experiment: K/BxN serum-transfer arthritis (STA) model, arthritic index / clinical score; type: in vivo, C57BL/6 mice; conditions: STA mice; DEX 30 mg/kg gavage daily
# Method: as §1
# [4] = system: TLR7 (R837) / TLR3 (poly:IC) induced cytokine production in RAW264.7 cells; experiment: ELISA of IL-1β and IL-6 in supernatant of R837 and/or poly:IC stimulated RAW264.7 cells; type: cell-based, mouse
# Method: (§3) RAW264.7 cells (5×10^5/ml), BMDMs (5×10^5/ml) and PBMCs (2×10^6/ml) were plated in 96-well plates and incubated overnight. […] For the anti-inflammatory molecular mechanism study, RAW264.7 cells (5×10^5/ml) were plated in 96-well plates and stimulated with R837 (20 μg/ml) with or without the addition of NF-κB inhibitor (JSH-23, […]) for 24 h. After 24 h, the culture supernatant was collected for cytokines measurements.
# as §2
# [5] = system: P65 and IRF5 translocation; experiment: Confocal microscopy of p65 and IRF5 translocation in RAW264.7 cells; type: cell-based, mouse; conditions: R837 alone, immunofluorescence staining
# Method: P65 and IRF5 translocation activity was analyzed by confocal microscopy. Briefly, 1×10^5 RAW264.7 cells were plated on coverslips overnight. Cells were pretreated with various concentrations of EFL2 (1, 5 and 10 µM) for 1 h and then stimulated by R837 (20 μg/ml) for 30 min. After washed with ice-cold PBS, RAW264.7 cells were fixed with 4% paraformaldehyde for 20 min at room temperature. The coverslips were washed with PBS with 0.2% tween 20 and blocked with 5% goat serum. Primary antibodies were applied to coverslips overnight at 4°C, followed by secondary antibodies incubation for 1 h at room temperature. After three times wash, coverslips were mounted with Fluoroshield™ with DAPI (Solarbio, China) and images were acquired by confocal microscopy (ZEISS, Germany). Primary antibody: rabbit anti-mouse IRF5 (1:800, Abcam, China); rabbit anti-mouse p65 (1:1,000, Abcam, China). Secondary antibody: Alexa eFluor®488 conjugated goat anti-rabbit IgG (1:2000, Thermo Fisher Scientific, Carlsbad, United States).
# [6] = system: TLR7-mediated NF-κB signaling pathway (IKKα/β, IκBα, p65); experiment: Western blot, NF-κB pathway in R837-stimulated RAW264.7 cells; type: cell-based, mouse; conditions: RAW264.7 cells; R837 alone
# Method: (§4) RAW264.7 cells (2×10^6 cells/well) were plated into 6-well plates and then incubated at 37°C in 5% CO2 for 24 h. After incubated with various concentrations of EFL2 (1, 5 and 10 µM) for 1 h, cells were then stimulated by R837 (20 μg/ml) for 30 min. Cell lysates were prepared by direct lysis in 20 µL IP buffer (Beyotime Biotechnology, Shanghai, China). After obtaining the whole cell extracts, the cytosolic and nuclear were seperated using Nuclear and Cytoplasmic Protein Extraction Kit (Beyotime Biotechnology, Shanghai, China). BCA Protein Assay Kit (Beyotime Biotechnology, Nantong, China) was applied to determine the protein concentrations. The bands corresponding to p- IKKα/β, IKKα/β, p-IκBα, IκBα, p-p65, p65, p-IRAK4, IRAK4, p-IKKβ, IKKβ, p-IRF5, IRF5, β-actin and Lamin B were visualized using a Western Blot Detection Chemiluminescence Kit (Merck). Protein extracted from the total lysates/cytoplasm and nucleus was quantified in relation to β-actin and Lamin B bands, respectively.
# (§5) The antibodies used in the experiments were as follows: rabbit anti-mouse IKKα/β polyclonal antibody (1:1,000, Abways, China), rabbit anti-mouse IκBα polyclonal antibody (1:1,000, Abgent, China), rabbit anti-mouse p65 polyclonal antibody (1:1,000, Abgent, China), rabbit anti-mouse phosphorylated IKKα (Ser176)/β (Ser177) (1:1,000, Abways, China), rabbit anti-mouse phosphorylated IκBα (1:1,000, Abcam, United States), rabbit anti-mouse phosphorylated p65 (1:1,000, Abcam, United States), rabbit anti-mouse IRAK4 polyclonal antibody (1:1,000, Proteintech, United States), rabbit anti-mouse phosphorylated IRAK4 (Thr345/Ser346) (1:1,000, Affinity, United States), rabbit anti-mouse IKKβ polyclonal antibody (1:1,000, Abbkine, United States), rabbit anti-mouse phosphorylated IKKβ (Ser177) (1:1,000, Abways, China), rabbit anti-mouse IRF5 polyclonal antibody (1:1,000, Immunoway, United States), rabbit anti-mouse phosphorylated IRF5 (Ser437) (1:1,000, Affinity, United States), anti-mouse actin monoclonal antibody (1:20,000, Transgen, China) and rabbit anti-mouse LaminB monoclonal antibody (1:5,000, Abways, China).
# [7] = system: TLR7-mediated IRAK4/IKKβ/IRF5 signaling pathway; experiment: Western blot, IRAK4/IKKβ/IRF5 in R837-stimulated RAW264.7 cells; type: cell-based, mouse; conditions: RAW264.7 cells; R837 alone
# Method: as §4, §5
# [8] = system: TLR7 (R837) induced cytokine production in PBMCs; experiment: ELISA of IL-1β and IL-6 in supernatant of R837 stimulated PBMCs; type: cell-based, human; conditions: PBMCs; R837 alone
# Method: (§6) RAW264.7 cells, a mouse macrophage cell line, were cultured in DMEM medium containing 10% fetal bovine serum (FBS), 1% penicillin-streptomycin and maintained at 37 °C in 5% CO2 humidified air. Bone marrow-derived macrophages (BMDMs) generation was performed as following description. In brief, bone marrow cells were harvested from tibias and femurs of C57BL/6 mice and differentiated for 7 days in DMEM medium supplemented with 10% FBS, 1% penicillin-streptomycin and 50 ng/ml M-CSF. For human peripheral blood mononuclear cells (PBMCs) preparation, 5 ml peripheral venous blood was obtained from healthy donors in West China Hospital. PBMCs were isolated with Human Lymphocyte Separation Medium (LTS1077, Tian Jing, China) according to the manufacturer’s instructions. The experimental protocols were performed according to the approved guidelines established by the Institutional Human Research Subject Protection Committee of the Ethics Committee of West China Hospital, Sichuan University, China.
# RAW264.7 cells (5×10^5/ml), BMDMs (5×10^5/ml) and PBMCs (2×10^6/ml) were plated in 96-well plates and incubated overnight. […]
# as §2
# [9] = system: TLR7 (R837) / TLR3 (poly:IC) induced cytokine production in BMDMs; experiment: ELISA of IL-1β and IL-6 in supernatant of R837 and/or poly:IC stimulated BMDMs; type: cell-based, C57BL/6 mice
# Method: as §6, §3, §2
# [10] = RAW 264.7 cells, JSH-23 10 μM, 24 h
molecule,measurement,setting,value
"C[C@@H]1C[C@H]2[C@@H]3CCC4=CC(=O)C=C[C@]4(C)[C@@]3(F)[C@@H](O)C[C@]2(C)[C@@]1(O)C(=O)CO [DEX, Dexamethasone, reference compound]",inflammatory status and inflamed synovium in joints,[1],significantly inhibited
same,IL-1β level in sera,[2],significantly reduced
same,IL-6 level in sera,[2],significantly reduced
same,arthritis clinical scores,[3],significantly lowered
Cc1ccc(NCCCc2ccccc2)c(N)c1 [JSH-23],R837-induced IL-1β production,[4]; [10],"to a large extent, blocked"
same,R837-induced IL-6 secretion,[4]; [10],only partially reduced
"CC(C)Cn1cnc2c(N)nc3ccccc3c21 [R837, imiquimod, reference compound]",IRF5 translocation from cytoplasm to nucleus,[5],dramatically induced
same,phosphorylation of IKKα/β and IκB-α,[6],rapidly occurs
same,phosphorylation of IRAK4 and IKKβ,[7],rapidly triggered
same,IL-1β and IL-6 release in the supernatant,"[4]; RAW264.7 cells, R837 alone (20 μg/ml)",robustly induced
same,IL-1β and IL-6 release in the supernatant,[8],robustly induced
same,IL-1β and IL-6 release in the supernatant,"[9]; BMDMs, R837 alone (20 μg/ml)",robustly induced
poly (I:C) [reference compound],IL-1β and IL-6 production,"[4]; R837-stimulated RAW264.7 cells, addition of poly (I:C)",did enhance
same,IL-1β and IL-6 secretion,"[4]; RAW264.7 cells, poly (I:C) alone (1 μg/ml)",significantly increased
same,IL-1β and IL-6 production,"[9]; BMDMs, poly (I:C) alone (1 μg/ml)",did not affect
same,IL-1β and IL-6 production,"[9]; R837-stimulated BMDMs, addition of poly (I:C)",did enhance
